The values that follow come from patent US8343990B2, “Substituted cyclopropyl compounds, compositions containing such compounds and methods of treatment” (Merck Sharp & Dohme Corp., priority 2008, dated 2013).

In this assay the target is T1, GPR119 receptor (UniProt Q8TDV5, S309L, species not given).
T1 sequence (Q8TDV5 1-335 S309L): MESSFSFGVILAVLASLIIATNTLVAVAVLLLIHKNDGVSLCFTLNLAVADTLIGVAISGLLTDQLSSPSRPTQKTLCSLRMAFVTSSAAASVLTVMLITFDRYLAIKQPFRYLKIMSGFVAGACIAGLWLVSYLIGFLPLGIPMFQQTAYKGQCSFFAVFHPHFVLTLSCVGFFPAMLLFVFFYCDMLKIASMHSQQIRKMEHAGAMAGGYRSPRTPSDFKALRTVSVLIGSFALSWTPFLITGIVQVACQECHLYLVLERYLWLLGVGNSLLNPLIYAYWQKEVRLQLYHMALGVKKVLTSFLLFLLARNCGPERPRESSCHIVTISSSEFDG
The assay can be described thus: GPR119 signaling, cyclic AMP (cAMP) homogenous time resolved fluorescence (HTRF) assay. The assay is classed as cell-based. As to conditions: CHO cells with Gα15 and murine GPR119, or HEK293 Flp-In cells with human GPR119 S309L; table does not say which; read-out: Activity: inflection points, denoted as EC50 values (agonist activation of GPR119, cAMP). From the text: Measurement of GPR119 Signaling Using a Cyclic AMP (cAMP) Homogenous Time Resolved Fluorescence (HTRF) Assay
Chinese hamster ovary (CHO) cell lines stably transfected with the permissive guanine nucleotide binding protein alpha 15 (Gα15) and […] GPR119 were maintained in DMEM media containing FBS, penicillin-streptomycin, puromycin, and G418 (geneticin). Alternatively, human embryonic kidney (HEK)293 Flp-In cells (Invitrogen, Carlsbad, Calif.) were stably transfected with a human SNP variant (S309L) of GPR119 and maintained in DMEM media containing FBS, penicillin-streptomycin, and hygromycin. Agonist activation of the GPR119 receptor was measured in receptor transfected cells described above, treated with compounds of this invention, using a commercial homogenous time resolved fluorescence (HTRF) kit for measurement of cAMP (CisBio, Bedford, Mass.). The assay was performed in 96-well half-volume plates (murine) or 384-well plates (human) following the manufacturers instructions. Briefly, suspended cells were incubated with a dose titration of test compound at room temperature for 60 min, lysed, and incubated with HTRF reagents for an additional 60 min. The plate was read using an Envision multilabel reader (Perkin Elmer) adjusted to read time resolved fluorescence and the cAMP concentrations were extrapolated from a cAMP calibration curve. […] The concentration of test compound required to stimulate a half-maximal response (EC50), and efficacy as compared to an internal agonist control, was determined from a sigmoidal 4-parameter curve fit of the resulting plot of normalized activity versus compound concentration.
Background: In TR-FRET formats the signal depends on donor and acceptor labels being close together.

By EC50 is commonly meant the midpoint of the concentration-response curve. As for `CS(=O)(=O)c1ccc(OCCC2CC2C2CCN(c3ncc(Cl)cn3)CC2)cc1` (racemic) [Ex 6, rac cis-5-chloro-2-[4-(2-{2-[4-(methylsulfonyl)phenoxy]ethyl}cyclopropyl)piperidin-1-yl]pyrimidine], the EC50 was < 10 nM. In the case of `CS(=O)(=O)c1ccc(OCC[C@H]2C[C@H]2C2CCN(c3ncc(Cl)cn3)CC2)nc1` (racemic) [Ex 6a, rac-cis 5-chloro-2-{-4-[2-(2-{[5-(methylsulfonyl)pyridin-2-yl]oxy}ethyl)cyclopropyl]piperidin-1-yl}pyrimidine] it was < 10 nM.

Take `CS(=O)(=O)c1cccc(OCCC2CC2C2CCN(c3ncc(Cl)cn3)CC2)c1` (racemic) [Ex 7, rac cis-5-chloro-2-[4-(2-{2-[3-(methylsulfonyl)phenoxy]ethyl}cyclopropyl)piperidin-1-yl]pyrimidine]: the EC50 is < 10 nM.

With `Cc1nnc(-c2cccc(OCCC3CC3C3CCN(c4ncc(Cl)cn4)CC3)c2)o1` (racemic) [Ex 8, rac cis-5-chloro-2-[4-(2-{2-[3-(5-methyl-1,3,4-oxadiazol-2-yl)phenoxy]ethyl}cyclopropyl)piperidin-1-yl]pyrimidine], the EC50 is > 200 nM. In the case of `Clc1cnc(N2CCC(C3CC3CCOc3cccc(-n4cncn4)c3)CC2)nc1` (racemic) [Ex 9, rac cis-5-chloro-2-[4-(2-{2-[3-(1H-1,2,4-triazol-1-yl)phenoxy]ethyl}cyclopropyl)piperidin-1-yl]pyrimidine] it was 50 to 200 nM; in that of `Clc1cnc(N2CCC(C3CC3CCOc3cccc(-c4nnco4)c3)CC2)nc1` (racemic) [Ex 10, rac cis-5-chloro-2-[4-(2-{2-[3-(1,3,4-oxadiazol-2-yl)phenoxy]ethyl}cyclopropyl)piperidin-1-yl]pyrimidine], > 200 nM; in that of `O=C(NC1CC1)c1ccc(OCCC2CC2C2CCN(c3ncc(Cl)cn3)CC2)cc1F` (racemic) [Ex 11, rac cis-4-(2-{2-[1-(5-chloropyrimidin-2-yl)piperidin-4-yl]cyclopropyl}ethoxy)-N-cyclopropyl-2-fluorobenzamide], < 10 nM.

In the case of `N#Cc1ccc(OCCC2CC2C2CCN(c3ncc(Cl)cn3)CC2)cc1F` (racemic) [Ex 12, rac cis-4-(2-{2-[1-(5-chloropyrimidin-2-yl)piperidin-4-yl)cyclopropyl}ethoxy)-2-fluorobenzonitrile], the EC50 fell in the range of 10 to 50 nM. On to `O=S(=O)(c1ccc(OCCC2CC2C2CCN(c3ncc(Cl)cn3)CC2)cc1)C1CC1` (racemic) [Ex 13, rac cis-5-chloro-2-[4-(2-{2-[4-(cyclopropylsulfonyl)phenoxy]ethyl}cyclopropyl)piperidin-1-yl]pyrimidine], for which the 50% effective concentration (EC50) was 10 to 50 nM. Take `Clc1cnc(N2CCC(C3CC3CCOc3ccc(-c4nnco4)cc3)CC2)nc1` (racemic) [Ex 15, rac cis-5-chloro-2-[4-(2-{2-[4-(1,3,4-oxadiazol-2-yl)phenoxy]ethyl}cyclopropyl)piperidin-1-yl]pyrimidine]: the EC50 was 10 to 50 nM.

As for `Cc1nnc(-c2ccc(OCCC3CC3C3CCN(c4ncc(Cl)cn4)CC3)cc2)o1` (racemic) [Ex 16, rac cis-5-chloro-2-[4-(2-{2-[4-(5-methyl-1,3.4-oxadiazol-2-yl)phenoxy]ethyl}cyclopropyl)piperidin-1-yl]pyrimidine], the EC50 is < 10 nM. Consider `Clc1cnc(N2CCC(C3CC3CCOc3ccc(-c4ncon4)cc3)CC2)nc1` (racemic) [Ex 17, rac cis-5-chloro-2-[4-(2-{2-[4-(1,2,4-oxadiazol-3-yl)phenoxy]ethyl}cyclopropyl)piperidin-1-yl]pyrimidine], for which the EC50 was 50 to 200 nM. In the case of `Clc1cnc(N2CCC(C3CC3CCOc3ccc(-c4ncno4)cc3)CC2)nc1` (racemic) [Ex 18, rac cis-5-chloro-2-[4-(2-{2-[4-(1,2,4-oxadiazol-5-yl)phenoxy]ethy]}cyclopropyl)piperidin-1-yl]pyrimidine] it was 50 to 200 nM; in that of `Clc1cnc(N2CCC(C3CC3CCOc3ccc(-c4cocn4)cc3)CC2)nc1` (racemic) [Ex 19, rac cis-5-chloro-2-[4-(2-{2-[4-(1,3-oxazol-4-yl)phenoxy]ethyl}cyclopropyl)piperidin-1-yl]pyrimidine], 10 to 50 nM; in that of `Clc1cnc(N2CCC(C3CC3CCOc3ccc(-c4cnoc4)cc3)CC2)nc1` (racemic) [Ex 20, rac cis-5-chloro-2-(4-{2-[2-(4-isoxazol-4-ylphenoxy)ethyl]cyclopropyl)piperidin-1-yl)pyrimidine], 50 to 200 nM. To `Clc1cnc(N2CCC(C3CC3CCOc3ccc(-c4ccno4)cc3)CC2)nc1` (racemic) [Ex 21, rac cis-5-chloro-2-(4-{2-[2-(4-isoxazol-5-ylphenoxy)ethyl]cyclopropyl}piperidin-1-yl)pyrimidine] belongs 10 to 50 nM; to `Clc1cnc(N2CCC(C3CC3CCOc3ccc(-c4ccn[nH]4)cc3)CC2)nc1` (racemic) [Ex 22, rac cis-5-chloro-2-[4-(2-{2-[4-(1H-pyrazol-3-yl)phenoxy]ethy]}cyclopropyl)piperidin-1-yl]pyrimidine], 10 to 50 nM; to `Clc1cnc(N2CCC(C3CC3CCOc3ccc(-c4cn[nH]c4)cc3)CC2)nc1` (racemic) [Ex 23, rac cis-5-chloro-2-[4-(2-{2-[4-(1H-pyrazol-4-yl)phenoxy]ethyl}cyclopropyl)piperidin-1-yl]pyrimidine], 50 to 200 nM. In the case of `Clc1cnc(N2CCC(C3CC3CCOc3ccc(-n4cccn4)cc3)CC2)nc1` (racemic) [Ex 24, rac cis-5-chloro-2-[4-(2-{2-[4-(1H-pyrazol-1-yl)phenoxy]ethyl}cyclopropyl)piperidin-1-yl]pyrimidine] it was 50 to 200 nM. In the case of `Clc1cnc(N2CCC(C3CC3CCOc3ccc(-n4cncn4)cc3)CC2)nc1` (racemic) [Ex 25, rac cis-5-chloro-2-[4-(2-{2-[4-(1H-1,2,4-triazol-1-yl)phenoxy]ethyl}cyclopropyl)piperidin-1-yl]pyrimidine], the EC50 was 10 to 50 nM. To `Clc1cnc(N2CCC(C3CC3CCOc3ccc(-n4cnnc4)cc3)CC2)nc1` (racemic) [Ex 26, rac cis-5-chloro-2-[4-(2-{2-[4-(4H-1,2,4-triazol-4-yl)phenoxy]ethyl}cyclopropyl)piperidin-1-yl]pyrimidine] belongs 10 to 50 nM; to `Clc1cnc(N2CCC(C3CC3CCOc3ccc(-n4ccnn4)cc3)CC2)nc1` (racemic) [Ex 27, rac cis-5-chloro-2-[4-(2-{2-[4-(1H-1,2,3-triazol-1-yl)phenoxy]ethyl}cyclopropyl)piperidin-1-yl]pyrimidine], < 10 nM. As to `Cc1cnc(N2CCC(C3CC3CCOc3ccc(-n4ccnn4)cc3)CC2)nc1` (racemic) [Ex 27c, rac cis-5-methyl-2-[4-(2-{2-[4-(1H-1,2,3-triazol-1-yl)phenoxy]ethyl}cyclopropyl)piperidin-1-yl]pyrimidine], the EC50 lay in the range of 10 to 50 nM. In the case of `Clc1cnc(N2CCC(C3CC3CCOc3ccc(-n4nccn4)cc3)CC2)nc1` (racemic) [Ex 28, rac cis-5-chloro-2-[4-(2-{2-[4-(2H-1,2,3-triazol-2-yl)phenoxy]ethyl}cyclopropyl)piperidin-1-yl]pyrimidine] it was 50 to 200 nM; in that of `Clc1cnc(N2CCC(C3CC3CCOc3ccc(-c4cnn[nH]4)cc3)CC2)nc1` (racemic) [Ex 29, rac cis-5-chloro-2-[4-(2-{2-[4-(1H-1,2,3-triazol-5-yl)phenoxy]ethyl}cyclopropyl)piperidin-1-yl]pyrimidine], > 200 nM; in that of `Clc1cnc(N2CCC(C3CC3CCOc3ccc(-n4cnnn4)cc3)CC2)nc1` (racemic) [Ex 30, rac cis-5-chloro-2-[4-(2-{2-[4-(1H-tetrazol-1-yl)phenoxy]ethyl}cyclopropyl)piperidin-1-yl]pyrimidine], < 10 nM. In the case of `Fc1cc(OCCC2CC2C2CCN(c3ncc(Cl)cn3)CC2)ccc1-n1cnnn1` (racemic) [Ex 30b, rac cis-5-chloro-2-[4-(2-{2-[3-fluoro-4-(1H-tetrazol-1-yl)phenoxy]ethyl}cyclopropyl)piperidin-1-yl]pyrimidine] it was < 10 nM; in that of `Fc1cnc(N2CCC(C3CC3CCOc3ccc(-n4cnnn4)c(F)c3)CC2)nc1` (racemic) [Ex 30d], < 10 nM. Turning to `Cc1cnc(N2CCC(C3CC3CCOc3ccc(-n4cnnn4)c(F)c3)CC2)nc1` (racemic) [Ex 30e, rac cis-2-[4-(2-{2-[3-fluoro-4-(1H-tetrazol-1-yl)phenoxy]ethyl)cyclopropyl)piperidin-1-yl]-5-methylpyrimidine], the EC50 is < 10 nM.
